Results published in patent US12310967B2, “Compositions and methods of treatment for neurological disorders comprising motor neuron diseases” (Gliapharm SA, priority 2017, dated 2025).
Like-named read-outs stand apart in the source and are kept apart here.

How the values were obtained:
primary astrocytes [1] = assay: Intracellular glycogen quantification, Example 2; type: cell-based, mouse; settings: 10 μM, 3 h
Description: Astrocytes grown on 12-well plates were used for intracellular glycogen quantifications. Cells were stimulated with Vehicle (DMSO), with compounds of the invention (10 μM), or with a positive control for 180 min, at 37° C. 5% CO2/95% air in D5030 medium complemented with
5 mM D-glucose and 44 mM sodium bicarbonate (pH 7.2). […] At the end of the stimulation, medium was removed and replaced with 600 μl of 30 mM Tris HCl, and stored at −20° C.
First, the amount of proteins in each sample was quantified to assess whether harvested astrocytes from primary cell cultures yielded enough and equivalent amounts of proteins on each replicates. Proteins were quantified using the micro BCA Protein Assay kit (Thermo Scientific), according to manufacturer's instructions. Next, intracellular glycogen concentrations were quantified using a 250 μl-aliquot of the same stimulated, thawed, and sonicated cell lysate. After an incubation period of 30 min at 90° C. and 400 rpm, 28 μl of a 0.1M acetic acid/sodium acetate buffer (pH 4.6) was added to each lysate aliquots, which were then separated in two. Each split aliquots received either 5 μl of amyloglucosidase or H2O, and incubated for 120 min at 37° C. After centrifugation at 16'000G for 5 min, 20 μl of supernatant were placed in a 96-well plate, to which 150 μl of a mix containing 0.67 mM ATP, 0.67 mM NADP, 1.8% hexokinase/glucose-6-phosphate dehydrogenase in a 0.1M Tris Buffer-HCl/3.3 mM magnesium (pH 8.1) buffer was added. Fluorescence intensity (340 nm excitation/440 nm emission) was measured using a Safire 2 spectrophotometer. Glucose concentrations were assessed relative to a glucose standard curve, and glycogen concentrations were calculated by subtracting glucose values of samples that had received amyloglucosidase (i.e. that had degraded their glycogen stores) to samples that had not. Intracellular levels of glycogen, which is the main source of glucose storage in the brain, were analyzed in primary astrocytes after treatment with compounds of interest (10 μM, 3 h) (FIG. 5B), and compound GP-0157 (0.1, 1, 10 μM, 3 h) (FIG. 20).

primary astrocytes [2] = assay: Mitochondrial activity: production of H2O2 (Amplex red); type: cell-based; settings: Mus musculus, Astrocyte, 1.5 h; CDC54K hits, 0-200 uM, 90 min
Description: Hydrogene peroxide (H2O2) released in the supernatant is detected enzymatically with Amplex red (Zhou, Diwu et al. 1997). Oxidation of Amplex red is catalysed by the horseradish peroxidase in presence of H2O2 into highly fluorescent resorufin. Fluorescence measure is read at 545 nm extinction, 590 nm emission. The amount of H2O2 was expressed relatively to the proteins content extracted from the cells in culture.
Mitochondrial respiration in astrocytes was measured through production of H2O2 at 90 min after stimulation with Prestwick Hits (10 uM each). […] CCCP (2 uM) was used as positive control.
Mitochondrial respiration in astrocytes was measured through production of H2O2 at 90 min after stimulation with CDC54K Hits (ranging from 0 to 200 uM).

primary astrocytes [3] = assay: Extracellular lactate quantification; type: cell-based, mouse; settings: for Score_LACTATE: Appendix I, secondary screening: extracellular lactate; for EC50: Mus musculus, Astrocyte
How it was run: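 Astrocytes were stimulated 90 min at 37 °C in D5030 medium with 5 mM glucose and 44 mM bicarbonate, with compound at 0-100 μM. Extracellular lactate was measured enzymatically with LDH/NAD in glycine-semicarbazide buffer, pH 10, for 1 h at 37 °C. NADH fluorescence (340/450 nm) was converted to lactate using an L-lactate standard curve.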

primary astrocytes [4] = assay: MTT viability assay; type: cell-based; settings: Mus musculus, Astrocyte; CDC54K hits, 0-200 uM, 24 h
Description: For cell toxicity determination, astrocytes in 96-well plates were stimulated 24 h (37° C. 5% CO2/95% air) with a gradient ranging from 0.1 to 200 μM of tested compounds. After stimulation, 5 mg/ml thiazol blue tetrazolium bromide (MTT, Sigma-Aldrich) in warm D5030 complete medium was added to each well, and cells were incubated for 4 h at 37° C. (5% CO2). The medium was then removed by aspiration, and the reaction was stopped by the addition of 50 μl DMSO per well.
The amount of reduced MTT (formazan) solubilized in DMSO was then determined spectrophotometrically using absorbance at 570 nm (Safire 2; Tecan).
MTT cellular viability assay was performed on astrocytes exposed to Preswtick Hits (concentrations ranging from 0 uM to 200 uM).
MTT cellular viability assay was performed on astrocytes exposed to CDC54K Hits (concentrations ranging from 0 uM to 200 uM).

[5] = tested on: cerebral extracellular lactate; assay: In vivo pharmacodynamics - lactate biosensors; parameters: species or system mouse; settings: 100 mg/kg per os, AUC ratio vs vehicle
Description: Extracellular levels of lactate were monitored in vivo using lactate biosensors (Pinnacle Technology), according to the manufacturer's instructions. Cannulae were surgically implanted in mice cerebral cerebral motor cortex areas M1/M2 (coordinates: +1.94 mm (to bregma), lateral −1.4 mm (to mideline), ventral −1.0 mm (to dura)) 5-7 days before administration of the compounds. Drugs were administered per os as previously described, and cerebral levels of extracellular lactate were dynamically recorded for 6 hours. Mice were administered vehicle alone first, followed 3 hours later by vehicle or drug (10 or 100 mg/kg). Area Under the Curve (AUC) quantifying the fluctuations of extracellular lactate concentrations for each of the compound tested was calculated using Graphad Prism and the ratio of AUC after drug over Vehicle administration was calculated. Groups of 8 male mice were used for each condition.
To measure biological effect of lead molecules in vivo in the brain, lactate levels were quantified after administration of the drug by using lactate biosensors implanted in the cortex of freely moving mice.

[6] = 1.5 h, CDC54K hits, 0-100 uM, 90 min, read-out: Lactate EC50

SMILES | IC50 (primary astrocytes [2]) | EC50 (primary astrocytes [3]; [6]) | EC50 (primary astrocytes [3]; Appendix II, lactate secretion, read-out: EC50) | mobilization of intracellular glycogen (primary astrocytes [1]) | Score_LACTATE (primary astrocytes [3]) | IC50 (primary astrocytes [4]) | cerebral lactate [5] | Score Lact. (primary astrocytes [3]; Appendix II, CDC54K library)
CSc1cccc(NS(=O)(=O)c2ccc3onc(C(=O)N4CCCC4)c3c2)c1 [L995-0125] | 173 µM | 2 µM |  |  | 0.9122 | > 200 µM |  | 
N#Cc1ccc(C(=O)N2CCC(Nc3ncnc4c3CCC4)C2)cc1 (stereo not shown) [T636-2387] | > 200 µM | 11.5 µM | 6.83 µM | significantly enhance | 0.3005 | > 200 µM | Significant increase | 0.30
c1ccc2c(c1)CCN(c1ncnc3sccc13)C2 [T0517-8250] |  |  |  | significantly enhance | 0.9269 |  |  | 
CC(=O)N1CCc2sc(S(=O)(=O)N3CCN(c4ccccc4C)CC3)cc2C1 [P025-0159] | > 200 µM | 8.7 µM |  | significantly enhance | 0.9232 | > 200 µM | Significant increase | 
Cc1ccccc1NC(=O)C1CCCN(c2ncnc3oc(C)c(C)c23)C1 (stereo not shown) [F228-0422] | > 200 µM | 0.5 µM |  | significantly enhance | 0.6364 | > 200 µM |  | 
CCn1nccc1-c1csc(S(=O)(=O)Nc2ccc(Cl)cc2F)c1 [L924-1031] | 48.6 µM | 25.3 µM |  | significantly enhance | 1.632 | > 200 µM |  | 
CCc1nc(-c2csc(S(=O)(=O)NCc3ccc4c(c3)OCO4)c2)no1 [L287-0468] | > 200 µM | 7.9 µM |  | significantly enhance | 0.6179 | > 200 µM |  | 

More lines, main results first:

IC50 (primary astrocytes [2]) | EC50 (primary astrocytes [3]; [6]) | EC50 (primary astrocytes [3]; Appendix II, lactate secretion, read-out: EC50) | SMILES | mobilization of intracellular glycogen (primary astrocytes [1]) | Score_LACTATE (primary astrocytes [3]) | IC50 (primary astrocytes [4]) | cerebral lactate [5] | Score Lact. (primary astrocytes [3]; Appendix II, CDC54K library)
> 200 µM | 11.5 µM |  | Cc1nc2ccc(NS(=O)(=O)c3cccc(F)c3)cc2s1 [T6937001] | significantly enhance | 0.9088 | > 200 µM |  | 
> 200 µM | 10 µM |  | CCc1ccc(S(=O)(=O)N2CCSC2c2ccc(OC)c(OC)c2)cc1 (stereo not shown) [T5463586] |  | 0.3936 | > 200 µM |  | 
> 200 µM | 11 µM |  | COc1cc(C)c(Cl)cc1S(=O)(=O)NCc1ccncc1 [T5580243] |  | 0.7229 | > 200 µM | Significant increase | 
> 200 µM | 7.9 µM |  | O=C1CCCN1c1ccc(S(=O)(=O)Nc2cccc(/C=C/c3ccccn3)c2)cc1 [T5644989] | significantly enhance | 0.7859 | > 200 µM |  | 
158 µM | 8.8 µM |  | CCc1ccc(S(=O)(=O)Nc2ccc3[nH]ncc3c2)cc1 [T5599014] |  | 0.4419 | > 200 µM |  | 
